# Results: US20240374606A1, “SUBSTITUTED PYRAZINE-2-CARBOXAMIDES AS HPK1 INHIBITORS FOR THE TREATMENT OF CANCER” (ASTRAZENECA AB, priority 2021, published 2024)
# Counter-ions that a name gives are not always drawn.
# How the values were obtained:
# Type in all cases: cell-based
# pSLP76 [1] = assay: WB pSLP76
# human CD3+ T cells = assay: T cell assay (IL2 in supernatant, anti-CD3/anti-CD28 stimulation); conditions: for EC50: T-cell, 4 hours anti-CD3/anti-CD28, read-out: IL-2 EC50
# Description: Cryo-preserved human CD3+ T cells are recovered in warm T cell media overnight. […] T cells are then left in a humidified incubator at 37° C. for 1 hour. […] Anti-CD28 antibody in T cell media is also added to the cells by Bravo liquid handler at 5 ug/mL or 1 μg/mL in a donor dependent manner. T cells are then incubated in a humidified incubator at 37° C. for 4 hours. […] IL2 is detected using a IL2 MultiCyt® QBeads® kit on an iQue Screener flow cytometer (Sartorius). Briefly, capture beads are diluted by 50× in the supplied capture bead diluent. […] Using a Bravo liquid handler, 10 ul cell culture supernatant is transferred to the v-bottom plate with diluted capture beads. The plate is then sealed in foil and incubate at room temperature on a plate shaker set to 900 rpm for 1 hour. At the end of incubation, 10 μL per well of the supplied detection reagent is added to the wells using a ThermoFisher multichannel pipette. The plate is then sealed in foil and incubate again at room temperature on a plate shaker set to 900 rpm for 2 hours before detection by iQue Screener. iQue Screener flow cytometer uses pre-configured analysis template supplied with the IL2 MultiCyt® QBeads® kit to detect IL2 in each sample wells.
# pSLP76 [2] = assay: Flow pSLP76
EC50 (pSLP76 [1]) [nM],EC50 (human CD3+ T cells) [nM],EC50 (pSLP76 [2]) [nM],Structure (SMILES),Max IL-2 conc (human CD3+ T cells) [µM]
340,276,–,"CNc1nc(Nc2cn(C(C)(C)C#N)nc2C)c(C(N)=O)nc1-c1cncc2c1ncn2C [Example 211, 3-[[1-(1-Cyano-1-methyl-ethyl)-3-methyl-pyrazol-4-yl]amino]-5-(methylamino)-6-(3-methylimidazo[4,5-c]pyridin-7-yl)pyrazine-2-carboxamide]",3.33
–,120,–,"Cc1nn(C2COC2)cc1Nc1nc(C2CC2)c(-c2cncc3c2ncn3C)nc1C(N)=O [Example 224, 5-Cyclopropyl-6-(3-methylimidazo[4,5-c]pyridin-7-yl)-3-[[3-methyl-1-(oxetan-3-yl)pyrazol-4-yl]amino]pyrazine-2-carboxamide]",3.33
–,23,65,"CNc1nc(Nc2ccc(CN3C[C@H]4C[C@@H]3CO4)cc2F)c(C(N)=O)nc1-c1cncc2c1ncn2C [Example 146, 3-[2-Fluoro-4-[[(1R,4R)-2-oxa-5-azabicyclo[2.2.1]heptan-5-yl]methyl]anilino]-5-(methylamino)-6-(3-methylimidazo[4,5-c]pyridin-7-yl)pyrazine-2-carboxamide]",0.37
–,325,1080,"CNc1nc(Nc2ccc(CN3CC4(COC4)C3)cc2Cl)c(C(N)=O)nc1-c1cncc2c1ncn2C [Example 148, 3-[2-Chloro-4-(2-oxa-6-azaspiro[3.3]heptan-6-ylmethyl)anilino]-5-(methylamino)-6-(3-methylimidazo[4,5-c]pyridin-7-yl)pyrazine-2-carboxamide formate salt]",3.33
320,91,440,"CNc1nc(Nc2cn(C3CCN(C)CC3)nc2C)c(C(N)=O)nc1-c1cccc2c1ncn2C [Example 206, 5-(Methylamino)-6-(1-methylbenzimidazol-4-yl)-3-[[3-methyl-1-(1-methyl-4-piperidyl)pyrazol-4-yl]amino]pyrazine-2-carboxamide formate salt]",1.11

Structure (SMILES),EC50 (pSLP76 [1]) [nM],EC50 (human CD3+ T cells) [nM],EC50 (pSLP76 [2]) [nM],Max IL-2 conc (human CD3+ T cells) [µM]
"Cc1nn(CC(F)(F)F)cc1Nc1nc(C2CC2)c(-c2cncc3c2ncn3C)nc1C(N)=O [Example 213, 5-Cyclopropyl-6-(3-methylimidazo[4,5-c]pyridin-7-yl)-3-[[3-methyl-1-(2,2,2-trifluoroethyl)pyrazol-4-yl]amino]pyrazine-2-carboxamide]",–,53,50,–
